From patent publication US20260250290A1 (BRISTOL-MYERS SQUIBB COMPANY, priority 2023, published 2026) come the findings set out here.

As usually defined, the IC50 is the concentration at which inhibition is half-maximal.

The assay deals with T1, full length SGK1 (Homo sapiens, UniProt O00141).
T1 construct: 125 μM full length SGK1 (Life Technologies Part #PR7358A); purchased Life Technologies PR7358A
T1 sequence (O00141 1-431): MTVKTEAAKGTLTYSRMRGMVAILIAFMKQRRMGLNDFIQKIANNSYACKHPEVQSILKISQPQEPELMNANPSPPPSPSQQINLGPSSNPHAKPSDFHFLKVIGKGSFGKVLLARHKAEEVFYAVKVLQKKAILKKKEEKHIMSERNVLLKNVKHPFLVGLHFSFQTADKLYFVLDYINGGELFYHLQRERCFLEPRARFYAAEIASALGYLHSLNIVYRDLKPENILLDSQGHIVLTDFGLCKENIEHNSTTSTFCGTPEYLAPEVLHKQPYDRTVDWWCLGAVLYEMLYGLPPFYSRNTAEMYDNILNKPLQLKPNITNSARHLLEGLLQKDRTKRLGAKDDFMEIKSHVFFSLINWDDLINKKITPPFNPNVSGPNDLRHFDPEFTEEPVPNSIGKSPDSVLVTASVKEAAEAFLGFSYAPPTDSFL
Description: SGK1 inhibition Assay A (Caliper LabChip electrophoretic separation of fluorescent peptide substrate and phosphorylated product). The class given is biochemical. The note with it: Assay A; 20 μM ATP, 40 min incubation; read-out: SGK1 IC50.

Structures can show the parent of a compound that is named as a salt.

As to `CC(=O)N1CC=C(c2cc(N3CCC[C@@H](NC(=O)c4cccc(NCCS(C)(=O)=O)n4)C3)c3c(N)ncnn23)C1` [Example 767, (R)-N-(1-(7-(1-acetyl-2,5-dihydro-1H-pyrrol-3-yl)-4-aminopyrrolo[2,1-f][1,2,4]triazin-5-yl)piperidin-3-yl)-6-((2-(methylsulfonyl)ethyl)amino)picolinamide], the IC50 was 24 nM. The result for `CC(=O)N1CC=C(c2cc(N3CCC[C@@H](NC(=O)c4cccc(NC5CC(=O)N(C)C5)n4)C3)c3c(N)ncnn23)C1` (stereo partly drawn) [Example 768, N-((R)-1-(7-(1-acetyl-2,5-dihydro-1H-pyrrol-3-yl)-4-aminopyrrolo[2,1-f][1,2,4]triazin-5-yl)piperidin-3-yl)-6-((1-methyl-5-oxopyrrolidin-3-yl)amino)picolinamide] reads 46 nM; that for `CC(=O)N1CC=C(c2cc(N3CCC[C@@H](NC(=O)c4cccc(N5CCN6CCCC6C5)n4)C3)c3c(N)ncnn23)C1` (stereo partly drawn) [Example 769, N-((R)-1-(7-(1-acetyl-2,5-dihydro-1H-pyrrol-3-yl)-4-aminopyrrolo[2,1-f][1,2,4]triazin-5-yl)piperidin-3-yl)-6-(hexahydropyrrolo[1,2-a]pyrazin-2(1H)-yl)picolinamide], 2 nM. Take `CC(=O)N1CC=C(c2cc(N3CCC[C@@H](NC(=O)c4cccc(N5CC[C@@H](O)C5)n4)C3)c3c(N)ncnn23)C1` [Example 770, N-((R)-1-(7-(1-acetyl-2,5-dihydro-1H-pyrrol-3-yl)-4-aminopyrrolo[2,1-f][1,2,4]triazin-5-yl)piperidin-3-yl)-6-((R)-3-hydroxypyrrolidin-1-yl)picolinamide]: the half-maximal inhibitory concentration (IC50) came out at 7 nM.

Regarding `CC(=O)N1CC=C(c2cc(N3CCC[C@@H](NC(=O)c4cccc(N5CC(C)(O)C5)n4)C3)c3c(N)ncnn23)C1` [Example 771, (R)-N-(1-(7-(1-acetyl-2,5-dihydro-1H-pyrrol-3-yl)-4-aminopyrrolo[2,1-f][1,2,4]triazin-5-yl)piperidin-3-yl)-6-(3-hydroxy-3-methylazetidin-1-yl)picolinamide], the half-inhibitory concentration (IC50) worked out at 17 nM. The figure for `CC(=O)N1CC=C(c2cc(N3CCC[C@@H](NC(=O)c4cccc(N5CCC(C)(O)CC5)n4)C3)c3c(N)ncnn23)C1` [Example 772, (R)-N-(1-(7-(1-acetyl-2,5-dihydro-1H-pyrrol-3-yl)-4-aminopyrrolo[2,1-f][1,2,4]triazin-5-yl)piperidin-3-yl)-6-(4-hydroxy-4-methylpiperidin-1-yl)picolinamide] is 72 nM; for `CC(=O)N1CC=C(c2cc(N3CCC[C@@H](NC(=O)c4cccc(N5CCNC(C)(C)C5)n4)C3)c3c(N)ncnn23)C1` [Example 773, (R)-N-(1-(7-(1-acetyl-2,5-dihydro-1H-pyrrol-3-yl)-4-aminopyrrolo[2,1-f][1,2,4]triazin-5-yl)piperidin-3-yl)-6-(3,3-dimethylpiperazin-1-yl)picolinamide] it is 1 nM; for `CC(=O)N1CC=C(c2cc(N3CCC[C@@H](NC(=O)c4cccc(N5C[C@@H](C)N[C@@H](C)C5)n4)C3)c3c(N)ncnn23)C1` [Example 774, N-((R)-1-(7-(1-acetyl-2,5-dihydro-1H-pyrrol-3-yl)-4-aminopyrrolo[2,1-f][1,2,4]triazin-5-yl)piperidin-3-yl)-6-((3S,5R)-3,5-dimethylpiperazin-1-yl)picolinamide] it is 1 nM. The figure for `CC(=O)N1CC=C(c2cc(N3CCC[C@@H](NC(=O)c4cccc(N5CC(=O)NC(C)C5)n4)C3)c3c(N)ncnn23)C1` (stereo partly drawn) [Example 775, N-((R)-1-(7-(1-acetyl-2,5-dihydro-1H-pyrrol-3-yl)-4-aminopyrrolo[2,1-f][1,2,4]triazin-5-yl)piperidin-3-yl)-6-(3-methyl-5-oxopiperazin-1-yl)picolinamide, 2 TFA] is 9 nM; for `CC(=O)N1CC=C(c2cc(N3CCC[C@@H](NC(=O)c4cccc(N5CCNC(C(F)(F)F)C5)n4)C3)c3c(N)ncnn23)C1` (stereo partly drawn) [Example 776, N-((R)-1-(7-(1-acetyl-2,5-dihydro-1H-pyrrol-3-yl)-4-aminopyrrolo[2,1-f][1,2,4]triazin-5-yl)piperidin-3-yl)-6-(3-(trifluoromethyl)piperazin-1-yl)picolinamide] it is 5 nM; for `CC(=O)N1CC=C(c2cc(N3CCC[C@@H](NC(=O)c4cccc(N5CCN(C)C(C)C5)n4)C3)c3c(N)ncnn23)C1` (stereo partly drawn) [Example 777, N-((R)-1-(7-(1-acetyl-2,5-dihydro-1H-pyrrol-3-yl)-4-aminopyrrolo[2,1-f][1,2,4]triazin-5-yl)piperidin-3-yl)-6-(3,4-dimethylpiperazin-1-yl)picolinamide] it is 44 nM. The figure for `CNc1cccc(C(=O)N[C@@H]2CCCN(c3cc(C4=CCN(C(C)=O)C4)n4ncnc(N)c34)C2)n1` [Example 778, (R)-N-(1-(7-(1-acetyl-2,5-dihydro-1H-pyrrol-3-yl)-4-aminopyrrolo[2,1-f][1,2,4]triazin-5-yl)piperidin-3-yl)-6-(methylamino)picolinamide] is 21 nM. Consider `CC(=O)N1CC=C(c2cc(N3CCC[C@@H](NC(=O)c4cccc(N5CC[C@H](O)C5)n4)C3)c3c(N)ncnn23)C1` [Example 779, N-((R)-1-(7-(1-acetyl-2,5-dihydro-1H-pyrrol-3-yl)-4-aminopyrrolo[2,1-f][1,2,4]triazin-5-yl)piperidin-3-yl)-6-((S)-3-hydroxypyrrolidin-1-yl)picolinamide], for which the IC50 was 33 nM.

Regarding `CC(=O)N1CC=C(c2cc(N3CCC[C@@H](NC(=O)c4cccc(NCC5CN(C)C5)n4)C3)c3c(N)ncnn23)C1` [Example 780, (R)-N-(1-(7-(1-acetyl-2,5-dihydro-1H-pyrrol-3-yl)-4-aminopyrrolo[2,1-f][1,2,4]triazin-5-yl)piperidin-3-yl)-6-(((1-methylazetidin-3-yl)methyl)amino)picolinamide], the IC50 amounted to 25 nM. The result for `CC(=O)N1CC=C(c2cc(N3CCC[C@@H](NC(=O)c4cccc(N5CC6(C5)CN(C(C)C)C6)n4)C3)c3c(N)ncnn23)C1` [Example 781, (R)-N-(1-(7-(1-acetyl-2,5-dihydro-1H-pyrrol-3-yl)-4-aminopyrrolo[2,1-f][1,2,4]triazin-5-yl)piperidin-3-yl)-6-(6-isopropyl-2,6-diazaspiro[3.3]heptan-2-yl)picolinamide] reads 5 nM; that for `CC(=O)N1CC=C(c2cc(N3CCC[C@@H](NC(=O)c4cccc(N5CC6(CN(C)C6)C5)n4)C3)c3c(N)ncnn23)C1` [Example 784, (R)-N-(1-(7-(1-acetyl-2,5-dihydro-1H-pyrrol-3-yl)-4-aminopyrrolo[2,1-f][1,2,4]triazin-5-yl)piperidin-3-yl)-6-(6-methyl-2,6-diazaspiro[3.3]heptan-2-yl)picolinamide], 20 nM; that for `CN1CCN(c2cccc(C(=O)N[C@@H]3CCCN(c4cc(-c5ccc(C#N)nc5)n5ncnc(N)c45)C3)n2)CC1` [Example 785, (R)—N-(1-(4-amino-7-(6-cyanopyridin-3-yl)pyrrolo[2,1-f][1,2,4]triazin-5-yl)piperidin-3-yl)-6-(4-methylpiperazin-1-yl)picolinamide], 7 nM. Take `COc1cc(-c2cc(N3CCC[C@@H](NC(=O)c4cccc(N5CCN(C)CC5)n4)C3)c3c(N)ncnn23)ccn1` [Example 786, (R)-N-(1-(4-amino-7-(2-methoxypyridin-4-yl)pyrrolo[2,1-f][1,2,4]triazin-5-yl)piperidin-3-yl)-6-(4-methylpiperazin-1-yl)picolinamide]: the half-inhibitory concentration (IC50) is 6 nM. In the case of `CN1CCN(c2cccc(C(=O)N[C@@H]3CCCN(c4cc(-c5cncnc5)n5ncnc(N)c45)C3)n2)CC1` [Example 787, (R)-N-(1-(4-amino-7-(pyrimidin-5-yl)pyrrolo[2,1-f][1,2,4]triazin-5-yl)piperidin-3-yl)-6-(4-methylpiperazin-1-yl)picolinamide], the 50% inhibitory concentration (IC50) worked out at 77 nM. The result for `COc1ncc(-c2cc(N3CCC[C@@H](NC(=O)c4cccc(N5CCN(C)CC5)n4)C3)c3c(N)ncnn23)cn1` [Example 788, (R)-N-(1-(4-amino-7-(2-methoxypyrimidin-5-yl)pyrrolo[2,1-f][1,2,4]triazin-5-yl)piperidin-3-yl)-6-(4-methylpiperazin-1-yl)picolinamide] reads 434 nM; that for `CC(=O)c1ncc(-c2cc(N3CCC[C@@H](NC(=O)c4cccc(N5CCN(C)CC5)n4)C3)c3c(N)ncnn23)s1` [Example 791, (R)-N-(1-(7-(2-acetylthiazol-5-yl)-4-aminopyrrolo[2,1-f][1,2,4]triazin-5-yl)piperidin-3-yl)-6-(4-methylpiperazin-1-yl)picolinamide], 15 nM. The figure for `CC(C)n1cc(-c2cc(N3CCC[C@@H](NC(=O)c4cccc(N5CCN(C)CC5)n4)C3)c3c(N)ncnn23)ccc1=O` [Example 792, (R)-N-(1-(4-amino-7-(1-isopropyl-6-oxo-1,6-dihydropyridin-3-yl)pyrrolo[2,1-f][1,2,4]triazin-5-yl)piperidin-3-yl)-6-(4-methylpiperazin-1-yl)picolinamide] is 29 nM; for `CN1CCN(c2cccc(C(=O)N[C@@H]3CCCN(c4cc(-c5ccnn5C)n5ncnc(N)c45)C3)n2)CC1` [Example 795, (R)-N-(1-(4-amino-7-(1-methyl-1H-pyrazol-5-yl)pyrrolo[2,1-f][1,2,4]triazin-5-yl)piperidin-3-yl)-6-(4-methylpiperazin-1-yl)picolinamide] it is 88 nM.
